Patent US20040024033A1 (priority 1998, published 2004)

Columns and labels:
[1] = Determination of the single i.v. dose MTD in nude mice; type: in vivo, female BALB/c nude mice; conditions: mean ± SD
Procedure: For the MTD determination, female BALB/c nude mice or BALB/c mice (obtained from Novartis Animal Farm, Sisseln, Switzerland) are treated once intravenously with epothilone B (n=3 per dose group). The dosage is increased (2, 4, 6, 8, 10 and 12 mg/kg) and the mice are observed for the presentation of overt toxic effects for 10 days after drug treatment.
Epothilone B is given as a single i.v. bolus dose at 2, 4, 6, 8, 10 or 12 mg/kg. Survival and body weights of the mice are monitored daily. Changes (A) in body weights are determined comparing the last measured body weight to that before treatment.

[2] = Two-week intravenous comparative toxicity study in mice; type: in vivo, normal female BALB/c mice
Procedure: In order to assess the sub-chronic intravenous toxicity of epothilone B, a non-GLP two-week i.v. toxicity study in non-tumor bearing, normal female BALB/c mice is conducted, involving analysis of mortality, clinical signs, body weight, food consumption, hematology, clinical biochemistry, urinalysis, and organ weights as well as macro and microscopic examinations. The study is based on two different dosing regimens of epothilone B of 3 mg/kg and 10 mg/kg, respectively, administered on days 1 and 8 (8 animals per group). Half of the animals are killed on day 15 (main group) and necropsy is performed. For the other half (recovery group) a recovery period of 5 weeks is allowed after administration of the second dose before sacrifice and subsequent necropsy on day 43.

[3] = test system: human PC-3M prostate carcinoma cells; assay: Antitumor effect against orthotopically injected PC-3M cells; type: in vivo, male BALB/c nude mice
Procedure: Human prostate carcinoma PC-3M cells (1×10^6 cells per 20 μl phosphate buffered saline) are injected into the left […] of the prostate of each animal (n=6-9/group) according the method previously described (see Stephenson et al., J. Natl. Cancer Inst. 84, 951-7 (1992)). Treatment is started on day 14 after cell injection. At this time point a mean tumor weight of ˜20 mg is established. Epothilone B is administered either once or once weekly. Mice are sacrificed 42 days post tumor inoculation, and the prostates are carefully removed, dissected free of adhering tissue and weighed. […] Mesenteric lymph nodes are examined for the presence of metastases, dissected free of adhering tissue and weighed.
Tumor weight and body weights are monitored once or twice weekly. All treatments are administered intravenously (i.v.) and are initiated 14 days post cell injection. Treatment with epothilone B varies the dose and frequency of administration. Antitumor activity is expressed as T/C% (mean tumor weight of treated animals divided by the mean tumor weight of control animals multiplied by 100).
1×10^6 PC-3M cells in 20 μL of PBS are injected into the […] of the prostate of each male nude mouse (n=9 per group). Treatments are started on day 14 after tumor cell injection. epothilone B is administered i.v., once at 6 or 8 mg/kg, or once per week at 4 or 5 mg/kg. Antitumor activity is expressed as T/C% (mean tumor weight of treated animals divided by the mean of tumor weight of control animals multiplied by 100). Differences in body weights consider only animals surviving to the end of the experiment (day 42). Statistical analyses on A body weight uses paired t-tests comparing body weights before treatment to the end of treatment; mice weigh˜20-25 g at the start of treatment. Not significant is indicated by the abbreviation ,ns”.

[4] = 3 mg/kg i.v. on days 1 and 8, day 15
[5] = 10 mg/kg i.v. on days 1 and 8, day 15

SMILES: C/C(=C\c1csc(C)n1)[C@@H]1C[C@@H]2O[C@]2(C)CCC[C@H](C)[C@H](O)[C@@H](C)C(=O)C(C)(C)[C@@H](O)CC(=O)O1 [epothilone B]
- Body Weight Δ ([1]; 2 mg/kg single i.v. bolus): 1.0 ± 0.5 g
- Body Weight Δ ([1]; 4 mg/kg single i.v. bolus): -0.4 ± 0.6 g
- Body Weight Δ ([1]; 6 mg/kg single i.v. bolus): -1.0 ± 0.5 g
- Body Weight Δ ([1]; 8 mg/kg single i.v. bolus): -3.8 ± 2.7 g
- Body Weight Δ ([1]; 10 mg/kg single i.v. bolus): -5.6 ± 3.3 g
- Body Weight Δ ([1]; 12 mg/kg single i.v. bolus): -5.1 ± 0.6 g
- Mortalities throughout the treatment period (days 1-14) ([2]; 3 mg/kg i.v. on days 1 and 8): No mortalities
- Atrophy of the thymus (microscopic) [2, 4]: moderate
- Hematology: leukocytes [2, 4]: reduction in the number of leukocytes
- Sternal bone marrow, microscopic [2, 4]: minimal to slight erythroid and myeloid atrophy
- Survival of the recovery group ([2]; 3 mg/kg i.v. on days 1 and 8, to day 43): all animals of the recovery group survive until the end of the study
- Body weight ([2]; 3 mg/kg i.v. on days 1 and 8, treatment period): body weight loss at the 3 mg/kg dose is only apparent in the second week
- Mortalities throughout the treatment period (days 1-14) ([2]; 10 mg/kg i.v. on days 1 and 8): No mortalities
- Atrophy of the thymus (microscopic) [2, 5]: marked
- Spleen, microscopic [2, 5]: minimal lymphoid atrophy
- Sternal bone marrow, microscopic [2, 5]: minimal to slight myeloid hypoplasia
- Hematology: leukocytes ([2]; 10 mg/kg i.v. on days 1 and 8, day 15, effect more pronounced): reduction in the number of leukocytes
- Body weight ([2]; 10 mg/kg i.v. on days 1 and 8, first and second week): Body weight loss is observed for all animals
- Intestinal mucosa (small and large intestine), microscopic ([2]; both dose levels (3 and 10 mg/kg), day 15): Minimal single cell necrosis
- Δ Body Weight ([3]; 4 mg/kg, i.v. once per week): -1.2 g
- Δ Body Weight ([3]; 5 mg/kg, i.v. once per week): -6.8 g
- Δ Body Weight ([3]; 6 mg/kg, i.v. once): -1.4 g
- Δ Body Weight ([3]; 8 mg/kg, i.v. once): -5.2 g
